Values quoted from earlier work as cited in patent US8222294B2, “Combinations of an anti emetic agent and an enkephalinase inhibitor” (Bioproject, priority 2004, dated 2012).

System: cholera toxins
Details: cited from earlier work
For `CC(=O)SCC(Cc1ccccc1)C(=O)NCC(=O)OCc1ccccc1` (stereo not drawn) [racecadotril], the antisecretory activity is listed as “active”.
For `CC(=O)SC[C@H](Cc1ccccc1)C(=O)NCC(=O)OCc1ccccc1` [dexecadotril], the antisecretory activity is listed as “active”.
In the case of `Cc1nccn1CC1CCc2c(c3ccccc3n2C)C1=O` (stereo not drawn) [ondansetron], the antisecretory activity is listed as “not”.
